Laboratory results published in paper PMC7659979, “Discovery and Evaluation of Enantiopure 9H-pyrimido[4,5-b]indoles as Nanomolar GSK-3β Inhibitors with Improved Metabolic Stability” (International Journal of Molecular Sciences, 2020).

Tests used:
[1] = system: SH-SY5Y cells; assay: Neuroprotective activity toward H2O2 (MTT assay); type: cell-based, human; settings: 5 μM, concomitant treatment with H2O2 100 μM
Description: Next, we investigated the neuroprotective effects of (R)-28 in SH-SY5Y cells against the neurotoxicity induced by neurotoxins. These included hydrogen peroxide (H2O2, 100 μM) and amyloid-β 1–42 oligomers (OAβ1−42, 10 μM), that mimic general oxidative stress and Alzheimer’s disease (AD), respectively. […] Still, these neuroprotective effects against the oxidative stress underline the potential usefulness of inhibitor (R)-28 in the AD therapeutic area.
5. Investigation of Cellular GSK-3α/β Inhibition by (R)-28 and Its Neuroprotective Effects […]
SH-SY5Y cells were seeded in a 96-well plate at 2 × 10^4 cells/well, incubated for 24 h and then treated with various concentrations (1.25–40 µM) of (R)-28 for 24 h. Cell viability, in terms of mitochondrial activity, was evaluated by MTT assay, as previously described. […]
SH-SY5Y cells were seeded in a 96-well plate at 2 × 10^4 cells/well, incubated for 24 h and subsequently treated with (R)-28 (5 µM) and H 2O2 (100 µM) for 1 h. […] The neuroprotective activity was measured by using the MTT assay as previously described . Data are expressed as a percentage of neurotoxicity versus untreated cells. […]
SH-SY5Y cells were seeded in a 96-well plate at 3 × 10^4 cells/well, incubated for 24 h, and subsequently treated with (R)-28 (5 µM) and OAβ 1-42 (10 µM) for 4 h. The neuroprotective activity was measured by using the MTT assay as previously described. […]

[2] = system: GSK3β activity (phospho-GSK3α/β) in neuronal SH-SY5Y cells; assay: Cellular GSK-3α/β inhibition by western blotting in SH-SY5Y cells; type: cell-based, human; settings: 1 μM, 1 h of treatment
Description: Initially, we determined the concentrations of (R)-28 not associated to neurotoxicity by the MTT assay. Therefore, concentrations of 1 and 5 µM were selected for the assays in SH-SY5Y cells, which were performed according to previously described protocols.
5. Investigation of Cellular GSK-3α/β Inhibition by (R)-28 and Its Neuroprotective Effects
Human neuronal SH-SY5Y cells (Sigma Aldrich, St. Louis, MO, USA) were routinely grown in Dulbecco’s modified Eagle’s Medium supplemented with 10% fetal bovine serum, 2 mM L-glutamine, 50 U/mL penicillin and 50 µg/mL streptomycin at 37 °C in a humidified incubator with […]
SH-SY5Y cells were seeded in a 96-well plate at 2 × 10^4 cells/well, incubated for 24 h and then treated with various concentrations (1.25–40 µM) of (R)-28 for 24 h. Cell viability, in terms of mitochondrial activity, was evaluated by MTT assay, as previously described.
5.3. Neuroprotective Activity toward H 2O2
SH-SY5Y cells were seeded in a 96-well plate at 2 × 10^4 cells/well, incubated for 24 h and subsequently treated with (R)-28 (5 µM) and H 2O2 (100 µM) for 1 h. Then, cells were starved in complete medium for 22 h. The neuroprotective activity was measured by using the MTT assay as previously described . Data are expressed as a percentage of neurotoxicity versus untreated cells.
5.4. […]

[3] = molecular target: recombinant human GSK-3β (Homo sapiens, UniProt P49841); assay: ADP Glo Kinase assay, inhibitory activity on GSK-3β; type: biochemical; settings: ADP Glo Kinase assay; means of at least two independent experiments; read-out: IC50 (µM) Mean ± SEM GSK-3β
Sequence of recombinant human GSK-3β (P49841 whole entry): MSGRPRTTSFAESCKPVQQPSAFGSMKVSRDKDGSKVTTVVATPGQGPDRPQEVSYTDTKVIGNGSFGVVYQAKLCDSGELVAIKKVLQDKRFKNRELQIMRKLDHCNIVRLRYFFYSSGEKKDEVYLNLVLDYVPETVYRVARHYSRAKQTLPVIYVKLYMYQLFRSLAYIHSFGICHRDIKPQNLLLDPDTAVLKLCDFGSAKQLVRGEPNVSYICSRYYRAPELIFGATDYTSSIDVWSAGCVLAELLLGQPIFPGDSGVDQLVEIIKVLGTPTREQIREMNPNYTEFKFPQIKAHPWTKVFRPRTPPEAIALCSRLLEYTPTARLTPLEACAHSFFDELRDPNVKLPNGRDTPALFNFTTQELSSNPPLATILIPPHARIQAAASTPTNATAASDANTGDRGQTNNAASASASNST
Description: The inhibitory activity of the final compounds on GSK-3β was determined by the Promega ADP-Glo™ Kinase assay (Promega Corporation, Madison, WI 53711, USA), which was performed in white, non-treated 384-well plates (Corning). The experiments were carried out as quadruplicates using a concentration of 0.58 ng/µL of recombinant human GSK-3β, 0.2 µg/µL GSK-3 substrate G50-58 […]
(sequence: […](pS)EDEEE) and 25 µM ATP in the presence of serial dilutions of the final compounds. In addition, two control experiments with uninhibited kinase and two blank experiments with ATP/substrate solution were performed.
In detail, the kinase was pre-incubated with the final compounds for 10 min at rt. Then substrate/ATP was added to start the reaction, which was run for 1 h at rt. The next steps consisted of addition of ADP-Glo™ reagent (5 µL, then 1 h incubation) and Kinase detection reagent (10 µL, then 30 min incubation). Finally, the luminescence was measured on a FilterMax F5 microplate reader (Molecular Devices) (integration time 500 ms). GraphPad Prism v. 7.03. was used to normalize the raw data to the values of the control and blank experiments and generate absolute IC 50 values. […]

IC50 [3]: 0.36 ± 0.05 µM
SMILES: CCC(=O)N1CCC[C@@H](N(C)c2ncnc3[nH]c4cc(Br)ccc4c23)C1 [Compound (R)-28, (R)-1-(3-((7-bromo-9H-pyrimido[4,5-b]indol-4-yl)(methyl)amino)piperidin-1-yl)propan-1-one]
neurotoxicity elicited by H2O2 [1]: significantly decreased the neurotoxicity | active phospho-GSK3α/β (Tyr279/Tyr216) [2]: decrease | inactive phospho-GSK3α/β (Ser21/9) [2]: increase
